Legend:
Format in all cases: cell-based
microorganism = experiment: Contacting the surfaces of the food product with peracetic acid solution; conditions: 1,000 ppm peracetic acid solution for 12 seconds at 8 °C
Description: The decontaminant solution preferably contains from about 500 to about 4,000 ppm of peracetic acid. The optimal concentration depends an the length of time to which the food products are exposed to the decontaminant solution and on the temperature of the decontaminant solution. […] For ensuring complete elimination of resistant microorganisms, such as Listeria, longer times and/or higher peracetic acid concentrations are preferred. Preferred peracetic acid concentrations are from about 1000 to about 2,000 ppm for contact times of 30 seconds to 1 minute to ensure complete kill of Listeria and other undesirable microorganisms at temperatures of from about 8-20° C. Microbiological analysis procedures are carried out periodically on samples of the treated frankfurters to ensure that the conditions used are maintaining a 100% kill of Listeria or other selected microorganisms.

[1] = system: Listeria monocytogenes ATCC. 43256; experiment: D-values for Listeria monocytogenes in peracetic acid solutions (suspension test)
Procedure: Peracetic acid solutions of 500, 1000, and 2000 mg/L (ppm) were prepared as for Example 1, using deionized water. To 100 mL samples of the solutions, 1.7×10^6 Listeria monocytogenes ATCC. 43256 per mL were added and mixed. The samples were maintained at a preselected temperature ([…], ˜15° C., or ˜22° C.). At 10, 20, 30, 40, and 50 seconds contact time, 1 mL was removed, neutralized, and the Listeria monocytogenes organisms remaining were determined by plating on TSA and incubation. […] D-values (time required to kill one log of the test microorganism—in this case, a reduction in microorganisms from 1.7×10^6 initially to 1.7×10^5) were determined, as shown in TABLE 4. D-values below the detection limit of the test are shown as <2 seconds.

E. coli = conditions: 5 seconds spray
Procedure: (§1) Samples of pork skin were inoculated separately with either 5 strains of E. coli or 5 strains of Salmonella spp. (mixtures X and Y, see Example 4). Five different treatments were evaluated for effectiveness in reducing bacteria on pork skin. […] EMB agar was used for E. coli and XLD for Salmonella, and a nutrient agar was also used for E. coli and Salmonella for total count.
(§2) The five strains of generic E. coli and five strains of Salmonella spp. were cultured and transferred individually into 100 mL of tryptic soy broth (TSB, DIFCO, Detroit, Mich.) with 1% dextrose (Sigma, St. Louis, Mo.) in duplicate. Dextrose was added to induce acid tolerance in the microbial cell. The cultures were incubated at 35° C. for 24 hrs. to obtain ca. 10^9 colony forming units (CFU)/mL. The cells were harvested by the centrifuging each culture at 10,000 Xg force for 10 min. at 4° C., (Beckman J2-HS centrifuge, Beckman Instruments, Inc., Palo Alto, Calif.). After centrifugation, the supernatant was poured off, and cells remained in pellet form. Each pellet was individually re-suspended with 50 mL of 0.1% peptonewater (DIFCO, Detroit, Mich.). All five strains of E. coli or Salmonella spp. inoculum were transferred to separate HDPE plastic spray bottles (Sprayco™, Detroit, Mich.) to be used in the mist inoculation of pork skin samples.
(§3) For E. coli, PCA and EMB media were used, and for Salmonella, PCA and XLD media were used. Bacto Plate Count Agar (PCA) was used in this study as a standard methods medium for the enumeration of bacteria before and after treatments. Spiral (sl), or spread (sd) plate technique were used for viable cell counts. Duplicate plates were performed for each treatment.
(§4) Fresh pork skins taken from the loin region were cut to rectangles of 19.35 cm^2. A hole was bored into the top of each sample so that each sample could be suspended from an individual hook in the spray cabinet. Samples were laid out onto trays wrapped in butcher paper. Each tray was individually spray inoculated with E. coli or Salmonella spp. in a Plexiglas spray chamber to ca. 8.4 mL of inoculum. After the inoculation, each tray was placed under a laminar flow hood for 1 hr. to allow the surface to dry and for the attachment of the bacteria to the pork skin.
(§5) The peracetic acid (PAA) used in this study was a 35.0% PAA buffered, liquid solution prepared from a STERIS 20™ two compartment cup (a dry powder containing anticorrosive additives, buffers, sequestrants, and surfactants). The peracetic acid determined before each use of the treatment using a calibration curve.
(§6) Five inoculated samples were individually placed on stainless steel hooks in. a spray cabinet at ambient temperature.
(§7) The samples were exposed to a continuous spray of the selected treatment for 5 seconds at a spray pressure of 16-18 psi.
(§8) The treated samples were placed into individual stomacher bags containing 30 mL of 0.1% peptone water (DIFCO, Detroit, Mich.) and stomached for 2 min. Serial dilutions of 0, 10^−2, and 10^−4 were spiral plated (WASP spiral plater, Bioscience International, Rockville, Md.) on PCA (DIFCO, Detroit, Mich.) and EMB (DIFCO, Detroit, Mich.) for E. coli and on plate count agar (PCA, DIFCO, Detroit, Mich.) and xylose lysine decarboxylase agar (XLD, DIFCO, Detroit, Mich.) for Salmonella spp. Samples were also spread plated on PCA and EMB agar for E. coli or PCA and XLD agar for Salmonella spp, using […] for a total of 1 mL on 4 plates. This was to ensure a countable plate. Plates were inverted and incubated at 35° C. for 24 hrs. (48 hrs. for Salmonella spp.).

Salmonella spp. = conditions: pork skin; 5 seconds spray; 2% lactic acid, 2% acetic acid, 0.1% peracetic acid; after 48 hours
Procedure: as §1, §2, §3, §4, §5, §6, §7, §8

[2] = pork skin, 2% lactic acid, 2% acetic acid, 0.1% peracetic acid, after 24 hours

CC(=O)OO [peracetic acid]
reduction in the number of microorganism (microorganism): six log reduction
D-value ([1]; 500 mg/L, 8.3-8.5 °C, pH 3.7-3.7): 2 s
D-value ([1]; 500 mg/L, 14.7-15.0 °C, pH 3.4-3.6): <2 s
D-value ([1]; 500 mg/L, 22.7-22.8 °C, pH 3.4-3.6): <2 s
D-value ([1]; 1000 mg/L, 8.1-8.1 °C, pH 3.2-3.4): <2 s
D-value ([1]; 1000 mg/L, 15.0-15.2 °C, pH 3.2-3.4): <2 s
D-value ([1]; 2000 mg/L, 8.1-8.4 °C, pH 3.0-3.1): <2 s
D-value ([1]; 2000 mg/L, temperature range printed 3.0-3.1 °C, pH 3.0-3.1): <2 s
Listeria monocytogenes organisms remaining ([1]; 500, 1000, 2000 mg/L, 10-50 seconds contact, except the sample at 500 mg/L, ~8 °C, 10 seconds): destroyed in all cases
reduction of E. coli on pork skin (E. coli; peracetic acid 0.1%): 3 log/cm^2
Total Count (E. coli) on EMB (E. coli; [2]): 3.04 Log CFU/cm^2
Total Count (E. coli) on PCA (E. coli; [2]): 3.28 Log CFU/cm^2
Total Count (Salmonella) on PCA (Salmonella spp.): 5.34 Log CFU/cm^2
Total Count (Salmonella) on XLD (Salmonella spp.): 3.83 Log CFU/cm^2
